Data on 21 molecules can be found in ChEMBL document CHEMBL5537111, “Structure and function of SARS-CoV and SARS-CoV-2 main proteases and their inhibition: A comprehensive review” (Eur J Med Chem, 2023).

Molecules are shown by their SMILES. pEC50, pIC50, pKd, pKi: −log10 of the molar value. Where a SMILES comes first, the peptide text is derived from it. The star is where a group is joined. Boc = CC(C)(C)OC(=O)*; OtBu = CC(C)(C)O*; CH2Cl = ClC* A value given as a limit tells only on which side of the number the result lay.

The target in assay [1] is T1, Replicase polyprotein 1ab (Severe acute respiratory syndrome coronavirus 2, UniProt P0DTD1).
The test system of assay [2] is SARS-CoV-2. Description: Antiviral activity against SARS-CoV-2 Omicron BA.1 infected in human A549-hACE2-TMPRSS2 cells assessed as reduction in viral replication pre-incubated with compound followed by viral infection measured after 72 hrs by ELISA assay. The class given is functional, organism-based. As to conditions: Severe acute respiratory syndrome coronavirus 2, Omicron BA.1, A549-hACE2-TMPRSS2.

Assay [3] deals with T1, Replicase polyprotein 1ab. This is another data set of the same source.
In assay [4] the test system is SARS-CoV-2. Description: microbe, parasite or virus in culture. The conditions noted are these: Severe acute respiratory syndrome coronavirus 2, Vero C1008.
The subject of assay [5] is SARS-CoV-2. The assay is classed as functional, organism-based. The conditions noted are these: Severe acute respiratory syndrome coronavirus 2, Huh-7.
The subject of assay [6] is SARS-CoV-2. The assay is classed as functional, organism-based. As to conditions: Severe acute respiratory syndrome coronavirus 2, Huh-7, 72 h.
The target of assay [7] is T1, Replicase polyprotein 1ab. The source holds these as a separate data set.
The test system of assay [8] is SARS-CoV-2. The class given is functional, organism-based. As to conditions: Severe acute respiratory syndrome coronavirus 2, A549-ACE2.
Assay [9] has as its system SARS-CoV-2. Description: microbe, parasite or virus in culture. The conditions noted are these: Severe acute respiratory syndrome coronavirus 2, Vero C1008. This is another data set of the same source.
For assay [10], the target named is Replicase polyprotein 1a (Severe acute respiratory syndrome-related coronavirus, UniProt P0C6U8).
For assay [11], the system named is SARS-CoV-2. Description: microbe, parasite or virus in culture. As to conditions: Severe acute respiratory syndrome coronavirus 2, Vero C1008, 72 h.
For assay [12], the system named is SARS-CoV. Description: microbe, parasite or virus in culture. As to conditions: Severe acute respiratory syndrome-related coronavirus, Vero C1008, 72 h.
Assay [13] has as its target T1, Replicase polyprotein 1ab. Description: Binding affinity to His-tagged SARS-CoV-2 Main protease BetaCoV/Wuhan/WIV04/2019 expressed in Escherichia coli BL21 (DE3) assessed as inhibition constant by FRET assay.
For assay [14], the system named is SARS-CoV-2. The assay is classed as functional, organism-based. The conditions noted are these: Severe acute respiratory syndrome coronavirus 2, Vero C1008, 120 h.
Assay [15] concerns SARS-CoV-2. The class given is functional, organism-based. The conditions noted are these: Severe acute respiratory syndrome coronavirus 2, Calu-3.
Assay [16] has as its system SARS-CoV-2. The assay is classed as functional, organism-based. As to conditions: Severe acute respiratory syndrome coronavirus 2, Vero.
Assay [17] has as its system SARS-CoV-2. The class given is functional, organism-based. The conditions noted are these: Severe acute respiratory syndrome coronavirus 2, Calu-3, 48 h.
Assay [18] relates to SARS-CoV-2. The assay can be described thus: microbe, parasite or virus in culture. The conditions noted are these: Severe acute respiratory syndrome coronavirus 2, B.1.1.7, Caco-2.
In assay [19] the target is T1, Replicase polyprotein 1ab. The assay can be described thus: Binding affinity to SARS-CoV-2 MPro assessed as dissociation constant by FRET analysis.
The subject of assay [20] is A549. The assay can be described thus: cells. The conditions noted are these: Homo sapiens, A549, 72 h.
Assay [21] deals with SARS-CoV-2. The assay can be described thus: microbe, parasite or virus in culture. The conditions noted are these: Severe acute respiratory syndrome coronavirus 2, Vero C1008, 72 h. The source holds these as a separate data set.

`C=CC(=O)N(CCC(N)=O)NC(=O)[C@H](CC(C)C)NC(=O)[C@@H](NC(=O)OCc1ccccc1)[C@@H](C)OC(C)(C)C` gave a negative logarithm of the IC50 (pIC50) in assay [1] of 7.47. In addition, the pEC50 in [2] was 6.15. With `O=C(NCc1ccc(O)c(F)c1)N1CCC(CN2CCc3ccccc32)CC1`, the negative logarithm of the IC50 (pIC50) in assay [3] is 6.14. This molecule showed a negative-log EC50 (pEC50) in assay [4] of 5.30. As to `CN(C)C(=O)COc1ccc(-c2cccc3[nH]ncc23)cc1C=O`, in assay [4], the pEC50 is 5.60. `CC(C)(C)NC(=O)N[C@H](C(=O)N1C[C@H]2[C@@H]([C@H]1C(=O)N[C@@H](C[C@@H]1CCNC1=O)C(=O)C(N)=O)C2(C)C)C(C)(C)C`: the negative-log EC50 (pEC50) in assay [5] and in assay [6] was 7.00 in each case. Regarding `C[C@@H](OC(C)(C)C)[C@H](NC(=O)OCc1ccccc1)C(=O)N[C@@H](CC1CCCCC1)C(=O)NN(CCC(N)=O)C(=O)C(Cl)Cl`, the pIC50 in assay [7] was 4.17. This molecule had a pEC50 in assay [8] of 8.00.

`CCOC(=O)c1cc(=O)oc2cc(O)c(O)cc12` gave a pIC50 in [1] of 4.34. This molecule also showed a negative logarithm of the EC50 (pEC50) in assay [9] of 3.95. With `CCCCC1CCC(COC(=O)N[C@@H](CC(C)C)C(=O)N[C@H](C=O)C[C@@H]2CCNC2=O)CC1` (stereo partly specified), the figures for the pIC50 in [10] and in assay [1] were 6.05 and 6.77, respectively. The molecule further gave a pEC50 in assay [11] of 6.82. On to `CNC(=O)c1ccc([C@H]2CCCCN2Cc2cccc(C(=O)N(C)C)c2)n1C`, for which the pIC50 in assay [3] was 6.16. This molecule had a pEC50 in [4] of 5.07. In assay [12], `Cc1c(O)cccc1C(=O)N[C@@H](CSc1ccccc1)[C@H](O)CN1C[C@H]2CCCC[C@H]2C[C@H]1C(=O)NC(C)(C)C` showed a negative logarithm of the EC50 (pEC50) of 6.11. `C[C@H](NC(=O)[C@H](Cc1ccccc1)NC(=O)OCc1ccccc1)C(=O)[C@H]1CO1`: the negative-log Ki (pKi) in assay [13] is 5.66. Moreover, the negative-log EC50 (pEC50) in assay [14] is 4.92.

As to `CC(C)(C)OC(=O)CC[C@H](NC(=O)CNC(=O)OC(C)(C)C)C(=O)CCl` (Boc-Gly-Glu(OtBu)-CH2Cl), the pEC50 in assay [2] was 4.30; in assay [8], 4.59. On to `COC(=O)N[C@H](C(=O)N[C@@H](Cc1ccccc1)[C@@H](O)CN(Cc1ccc(-c2ccccn2)cc1)NC(=O)[C@@H](NC(=O)OC)C(C)(C)C)C(C)(C)C` [ATAZANAVIR], for which the pEC50 in assay [14] was 5.70; in assay [15], 6.49. The molecule `COC(=O)[C@]12CCC(C)(C)C[C@H]1[C@H]1C(=O)C=C3[C@@]4(C)C=C(C#N)C(=O)C(C)(C)[C@@H]4CC[C@@]3(C)[C@]1(C)CC2` [BARDOXOLONE METHYL] gave a pIC50 in assay [1] of 5.24. The negative logarithm of the EC50 (pEC50) in assay [16] is 6.54; in assay [17], 6.70. Consider `C=C(C)[C@@H]1CC[C@]2(C(=O)O)CC[C@]3(C)[C@H](CC[C@@H]4[C@@]5(C)CC[C@H](O)C(C)(C)[C@@H]5CC[C@]43C)[C@@H]12` [BETULINIC ACID], for which, in assay [1], the negative logarithm of the IC50 (pIC50) was 5.00. This molecule had a negative-log EC50 (pEC50) in assay [9] of less than 5.00. On to `CC(C)(C)NC(=O)N[C@H](C(=O)N1C[C@H]2[C@@H]([C@H]1C(=O)NC(CC1CCC1)C(=O)C(N)=O)C2(C)C)C(C)(C)C` (stereo partly specified) [BOCEPREVIR], for which the pIC50 in [10] was 5.18. Also, the negative logarithm of the EC50 (pEC50) in assay [11] was 4.81; in assay [4] it was 4.81; in assay [18] it was 5.53. In assay [1], `CC(C)c1nc(CN(C)C(=O)N[C@@H](CCN2CCOCC2)C(=O)N[C@H](CC[C@H](Cc2ccccc2)NC(=O)OCc2cncs2)Cc2ccccc2)cs1` [COBICISTAT] showed a negative-log IC50 (pIC50) of 5.17. The molecule further had a pEC50 in assay [14] of 5.56. In [19], the pKd is 5.66. `CC(=O)[C@@]1(O)CC[C@H]2[C@@H]3CCC4=CC(=O)CC[C@]4(C)[C@H]3CC[C@@]21C` [HYDROXYPROGESTERONE] gave a negative logarithm of the IC50 (pIC50) in assay [1] of 5.61. Moreover, the negative-log EC50 (pEC50) in assay [9] was 5.56. As for `Cc1ccc(NC(=O)c2ccc(CN3CCN(C)CC3)cc2)cc1Nc1nc(-c2cccnc2)cs1` [MASITINIB], in [20], the pEC50 was 5.49. Molecule `O=c1c(O)c(-c2cc(O)c(O)c(O)c2)oc2cc(O)cc(O)c12` [MYRICETIN] had a negative-log EC50 (pEC50) in assay [9] of 5.10. In [12], `CCOc1cc2ncc(C#N)c(Nc3ccc(F)c(Cl)c3)c2cc1NC(=O)/C=C/CN(C)C` [PELITINIB] had a negative logarithm of the EC50 (pEC50) of 5.90. Take `CC1(C)CCC(CN2CCN(c3ccc(C(=O)NS(=O)(=O)c4ccc(NCC5CCOCC5)c([N+](=O)[O-])c4)c(Oc4cnc5[nH]ccc5c4)c3)CC2)=C(c2ccc(Cl)cc2)C1` [VENETOCLAX]: the negative-log EC50 (pEC50) in [21] is 5.93.

What is called pIC50 is the IC50 on a negative log10 scale, so that one unit is a factor of ten. The low end stands for a high IC50, the high end for a low IC50. As a reminder, the pEC50 is −log10 of the EC50, conventionally taken in molar units. In general, pKi refers to −log10 of the Ki, conventionally taken in molar units. One may read the pKd as the negative decadic logarithm of the Kd, by convention in mol/L.
